Reference: patent publication US20240158446A1, “CYCLIC COMPOUND HAVING SELECTIVE INHIBITORY ACTION ON KRAS OVER HRAS AND NRAS” (CHUGAI SEIYAKU KABUSHIKI KAISHA, priority 2021, published 2024)
Like-named read-outs stand apart in the source and are kept apart here. Where a SMILES comes first, the peptide text is derived from it. Bridges are numbered along the chain shown (N, C = ends). [ ]: non-standard residue; d: D form. The star is where a group is joined. hPhe(3-Cl-4-CF3) = N[C@@H](CCc1ccc(C(F)(F)F)c(Cl)c1)C(=O)O; NPrPhe(4-CF3) = CCCN[C@@H](Cc1ccc(C(F)(F)F)cc1)C(=O)O; NEtPhe(4-Me) = CCN[C@@H](Cc1ccc(C)cc1)C(=O)O; NMeGly(cPent) = CN[C@H](C(=O)O)C1CCCC1; Pro(4,4-F2) = O=C(O)[C@@H]1CC(F)(F)CN1; Hyp = O=C(O)[C@@H]1C[C@@H](O)CN1; NMeD = CN[C@@H](CC(=O)O)C(=O)O; NMeL = CN[C@@H](CC(C)C)C(=O)O; Morpholide = C1CN(*)CCO1; NMeA = CN[C@@H](C)C(=O)O; Ac5c = NC1(C(=O)O)CCCC1; Aze = O=C(O)[C@@H]1CCN1; NcPrGly = O=C(O)CNC1CC1; Ac4c = NC1(C(=O)O)CCC1; NEtG = CCNCC(=O)O; Sar = CNCC(=O)O

Assays:
[1] = molecular target: GDP-bound KRAS wild-type protein (Homo sapiens, UniProt P01116); experiment: Binding to KRAS by surface plasmon resonance (SPR), Single Cycle Kinetics; conditions: GDP-bound KRAS wild-type protein, read-out: KRAS KD
[2] = molecular target: GDP-bound HRAS wild-type protein (Homo sapiens, UniProt P01112); experiment: Binding to HRAS by surface plasmon resonance (SPR), Single Cycle Kinetics; conditions: SPR; for HRAS/KRAS (ratio of KD value for HRAS to KD value for KRAS) / HRAS/KRAS (ratio of KD value with respect to HRAS to KD value with respect to KRAS): GDP-bound HRAS wild-type protein vs GDP-bound KRAS wild-type protein
[3] = molecular target: GDP-bound NRAS wild-type protein (Homo sapiens, UniProt P01111); experiment: Binding to NRAS by surface plasmon resonance (SPR), Single Cycle Kinetics; conditions: SPR; for NRAS/KRAS (ratio of KD value for NRAS to KD value for KRAS) / NRAS/KRAS (ratio of KD value with respect to NRAS to KD value with respect to KRAS): GDP-bound NRAS wild-type protein vs GDP-bound KRAS wild-type protein
[4] = SPR Single Cycle Kinetics, 1:1 binding model

Sequence of GDP-bound KRAS wild-type protein (P01116 whole entry): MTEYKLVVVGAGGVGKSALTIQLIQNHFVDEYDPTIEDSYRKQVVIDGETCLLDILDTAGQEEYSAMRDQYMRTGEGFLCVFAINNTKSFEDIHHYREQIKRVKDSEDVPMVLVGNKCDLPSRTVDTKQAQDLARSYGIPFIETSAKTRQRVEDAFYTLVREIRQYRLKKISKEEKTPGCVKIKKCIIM
Sequence of GDP-bound NRAS wild-type protein (P01111 whole entry): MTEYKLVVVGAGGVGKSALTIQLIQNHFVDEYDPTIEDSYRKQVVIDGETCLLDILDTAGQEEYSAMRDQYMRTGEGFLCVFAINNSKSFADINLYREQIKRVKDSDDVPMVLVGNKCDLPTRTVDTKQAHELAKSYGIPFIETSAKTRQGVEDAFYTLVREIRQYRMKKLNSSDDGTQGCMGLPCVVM
Sequence of GDP-bound HRAS wild-type protein (P01112 whole entry): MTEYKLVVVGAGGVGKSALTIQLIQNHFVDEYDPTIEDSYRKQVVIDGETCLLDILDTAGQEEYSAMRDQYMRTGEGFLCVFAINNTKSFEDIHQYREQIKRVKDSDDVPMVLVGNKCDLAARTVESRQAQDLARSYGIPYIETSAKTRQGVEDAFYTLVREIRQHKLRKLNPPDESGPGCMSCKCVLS

Row | Structure (SMILES) | Kd ([1]; SPR, Single Cycle Kinetics) [nM] | Kd [1, 4] [nM] | HRAS/KRAS (ratio of KD value for HRAS to KD value for KRAS) [2] | NRAS/KRAS (ratio of KD value for NRAS to KD value for KRAS) [3] | HRAS/KRAS (ratio of KD value with respect to HRAS to KD value with respect to KRAS) [2] | NRAS/KRAS (ratio of KD value with respect to NRAS to KD value with respect to KRAS) [3] | HRAS/KRAS (KD ratio) ([2]; ratio of KD for GDP-bound HRAS wild-type protein to KD for KRAS) | NRAS/KRAS (KD ratio) ([3]; ratio of KD for GDP-bound NRAS wild-type protein to KD for KRAS)
1 | CCO[C@@H]1C[C@H]2C(=O)NC3(CCC3)C(=O)N(C)[C@@H](C3CCCC3)C(=O)N(C)[C@H](C(=O)N3CCOCC3)CC(=O)N(C)[C@@H](COC)C(=O)N[C@@H]([C@@H](C)CC)C(=O)N(C)CC(=O)N(C)[C@H]3CCCCCN(C3=O)[C@@H](Cc3ccc(C(F)(F)F)cc3)C(=O)N(C)CC(=O)N[C@@H](CCc3ccc(C)cc3)C(=O)N2C1 [PP0850] | 12 |  | B (a compound having 3 or more and less than 10 is denoted as B) | B (a compound having 3 or more and less than 10 is denoted as B) |  |  |  | 
2 | CCO[C@@H]1C[C@H]2C(=O)NC3(CCC3)C(=O)N(C)[C@@H](C3CCCC3)C(=O)N(C)[C@H](C(=O)N3CCOCC3)CC(=O)N(C)[C@@H](CC3CCCC3)C(=O)N[C@@H]([C@@H](C)CC)C(=O)N(C)CC(=O)N(C)[C@H]3CCCCN(C3=O)[C@@H](Cc3ccc(C(F)(F)F)cc3)C(=O)N(C)CC(=O)N[C@@H](CCc3cc(F)c(C(F)(F)F)c(F)c3)C(=O)N2C1 [PP0715] |  | 0.035 |  |  | B (a compound having 3 or more and less than 10 is denoted as B) | C (A compound having a KD ratio of 0.1 or more and less than 3 is denoted as C) |  | 
3 | CCCN1C(=O)[C@@H]2CCN2C(=O)CN(C2CC2)C(=O)[C@H]([C@@H](C)CC)NC(=O)[C@H](CC(C)C)N(C)C(=O)C[C@@H](C(=O)N2CCOCC2)N(C)C(=O)[C@H](C2CCCC2)N(C)C(=O)C2(CCCC2)NC(=O)[C@@H]2CCCN2C(=O)[C@H](CCc2ccc(C(F)(F)F)c(Cl)c2)NC(=O)CN(C)C(=O)[C@@H]1Cc1ccc(C(F)(F)F)cc1 [PP0273] ([NMeL]I[NcPrGly][Aze][NPrPhe(4-CF3)][Sar][hPhe(3-Cl-4-CF3)]P[Ac5c][NMeGly(cPent)][NMeD]-Morpholide; lactam N-11) |  | 0.56 | B (a compound having 3 or more and less than 10 is denoted as B) | C (A compound having a KD ratio of 0.1 or more and less than 3 is denoted as C) |  |  |  | 
4 | CCC[C@H]1C(=O)N[C@@H]([C@@H](C)CC)C(=O)N(C)CC(=O)N(C)[C@H]2C/C=C\CCN(C2=O)[C@@H](Cc2ccc(C(F)(F)F)cc2)C(=O)N(C)CC(=O)N[C@@H](CCc2cc(F)c(C(F)(F)F)c(F)c2)C(=O)N2C[C@H](OCC)C[C@H]2C(=O)NC2(CC(C)(C)C2)C(=O)N(C)[C@@H](C(CC)CC)C(=O)N(C)[C@H](C(=O)N(C)C)CC(=O)N1C [PP2125] | 0.22 |  | A (a compound having 10 or more and less than 20 is denoted as A) | AA (a compound having 20 or more is denoted as AA) |  |  |  | 
5 | CCCN1C(=O)CN(C)C(=O)CNC(=O)[C@H]([C@@H](C)CC)NC(=O)[C@H](CC(C)C)N(C)C(=O)C[C@@H](C(=O)N2CCOCC2)NC(=O)[C@H](C2CCCC2)N(C)C(=O)C2(CCCC2)NC(=O)[C@@H]2CC(F)(F)CN2C(=O)[C@H](CCc2ccc(C(F)(F)F)c(Cl)c2)NC(=O)CN(C)C(=O)[C@@H]1Cc1ccc(C(F)(F)F)cc1 [PP0327] ([NMeL]IG[Sar][NPrPhe(4-CF3)][Sar][hPhe(3-Cl-4-CF3)][Pro(4,4-F2)][Ac5c][NMeGly(cPent)]D-Morpholide; lactam N-11) |  | 1.9 | B (a compound having 3 or more and less than 10 is denoted as B) | B (a compound having 3 or more and less than 10 is denoted as B) |  |  |  | 
6 | CCO[C@@H]1C[C@H]2C(=O)NC3(CC(C)(C)C3)C(=O)N(C)[C@@H](C(CC)CC)C(=O)N(C)[C@H](C(=O)N3CCCC3)CC(=O)N(C)[C@@H](COC)C(=O)N[C@@H]([C@@H](C)CC)C(=O)N(C)CC(=O)N(C)[C@H]3C/C=C\CCN(C3=O)[C@@H](Cc3ccc(C(F)(F)F)cc3)C(=O)N(C)CC(=O)N[C@@H](CCc3ccc(C(F)(F)F)c(Cl)c3)C(=O)N2C1 [PP2128] | 0.4 |  | A (a compound having 10 or more and less than 20 is denoted as A) | AA (a compound having 20 or more is denoted as AA) |  |  |  | 
7 | CC[C@H](C)[C@@H]1NC(=O)[C@H](CC(C)C)N(C)C(=O)C[C@@H](C(=O)N(C)C)N(C)C(=O)[C@H](C2CCCC2)N(C)C(=O)C2(CCC2)NC(=O)[C@@H]2CC(F)(F)CN2C(=O)[C@H](CCc2cc(F)c(C(F)(F)F)c(F)c2)NC(=O)CN(C)C(=O)[C@H](Cc2ccc(C(F)(F)F)cc2)N2CCCC[C@@H](C2=O)N(C)C(=O)CN(C)C1=O [PP0577] |  | 0.019 |  |  | C (A compound having a KD ratio of 0.1 or more and less than 3 is denoted as C) | C (A compound having a KD ratio of 0.1 or more and less than 3 is denoted as C) |  | 

Second part, led by results:

Row | Kd ([1]; SPR, Single Cycle Kinetics) [nM] | Kd [1, 4] [nM] | Structure (SMILES) | HRAS/KRAS (ratio of KD value for HRAS to KD value for KRAS) [2] | NRAS/KRAS (ratio of KD value for NRAS to KD value for KRAS) [3] | HRAS/KRAS (ratio of KD value with respect to HRAS to KD value with respect to KRAS) [2] | NRAS/KRAS (ratio of KD value with respect to NRAS to KD value with respect to KRAS) [3] | HRAS/KRAS (KD ratio) ([2]; ratio of KD for GDP-bound HRAS wild-type protein to KD for KRAS) | NRAS/KRAS (KD ratio) ([3]; ratio of KD for GDP-bound NRAS wild-type protein to KD for KRAS)
8 |  | 1.5 | CC[C@H](C)[C@@H]1NC(=O)[C@H](CC(C)C)N(C)C(=O)C[C@@H](C(=O)N2CCOCC2)N(C)C(=O)[C@H](C2CCCC2)N(C)C(=O)C2(CCCC2)NC(=O)[C@@H]2CCCN2C(=O)[C@H](CCc2ccc(C(F)(F)F)c(Cl)c2)NC(=O)CN(CC)C(=O)[C@H](Cc2ccc(C)cc2)N(CC)C(=O)[C@@H]2CCN2C(=O)[C@H](C)N(C)C1=O [PP0006] ([NMeL]I[NMeA][Aze][NEtPhe(4-Me)][NEtG][hPhe(3-Cl-4-CF3)]P[Ac5c][NMeGly(cPent)][NMeD]-Morpholide; lactam N-11) | C (A compound having a KD ratio of 0.1 or more and less than 3 is denoted as C) | C (A compound having a KD ratio of 0.1 or more and less than 3 is denoted as C) |  |  |  | 
9 | 0.051 |  | CCO[C@@H]1C[C@H]2C(=O)NC3(CC(C)(C)C3)C(=O)N(C)[C@@H](C3CCCC3)C(=O)N(C)[C@H](C(=O)N(C)CC)CC(=O)N(C)[C@H]3CCC/C=C/c4ccc(cc4)C[C@@H](C(=O)N(C)CC(=O)N[C@@H](CCc4cc(F)c(C(F)(F)F)c(F)c4)C(=O)N2C1)N1CC/C=C\C[C@@H](C1=O)N(C)C(=O)CN(C)C(=O)[C@H]([C@@H](C)CC)NC3=O [PP1835] |  |  |  |  | B (a compound having 3 or more and less than 10 is denoted as B) | A (a compound having 10 or more and less than 20 is denoted as A)
10 |  | 1.7 | CCCN1C(=O)CN(C)C(=O)[C@@H]2CCN2C(=O)[C@H]([C@@H](C)CC)NC(=O)[C@H](CC(C)C)N(C)C(=O)C[C@@H](C(=O)N2CCOCC2)NC(=O)[C@H](C2CCCC2)N(C)C(=O)C2(CCC2)NC(=O)[C@@H]2C[C@@H](OCC)CN2C(=O)[C@H](CCc2ccc(C(F)(F)F)c(Cl)c2)NC(=O)CN(C)C(=O)[C@@H]1Cc1ccc(C(F)(F)F)cc1 [PP0342] ([NMeL]I[Aze][Sar][NPrPhe(4-CF3)][Sar][hPhe(3-Cl-4-CF3)][Hyp](Et)[Ac4c][NMeGly(cPent)]D-Morpholide; lactam N-11) | B (a compound having 3 or more and less than 10 is denoted as B) | B (a compound having 3 or more and less than 10 is denoted as B) |  |  |  | 
11 | 0.38 |  | CCO[C@@H]1C[C@H]2C(=O)NC3(CCC3)C(=O)N(C)[C@@H](C3CCCC3)C(=O)N(C)[C@H](C(=O)N3CCOCC3)CC(=O)N(C)[C@@H](CC(F)F)C(=O)N[C@@H]([C@@H](C)CC)C(=O)N(C)CC(=O)N(C)[C@H]3CCCCCN(C3=O)[C@@H](Cc3ccc(C(F)(F)F)cc3)C(=O)N(C)CC(=O)N[C@@H](CCc3cc(F)c(C(F)(F)F)c(F)c3)C(=O)N2C1 [PP0854] | B (a compound having 3 or more and less than 10 is denoted as B) | B (a compound having 3 or more and less than 10 is denoted as B) |  |  |  | 
12 |  | 0.67 | CC[C@H](C)[C@@H]1NC(=O)[C@H](CC(C)C)N(C)C(=O)C[C@@H](C(=O)N2CCOCC2)N(C)C(=O)[C@H](C2CCCC2)N(CC)C(=O)C2(CCCC2)NC(=O)[C@@H]2CCCN2C(=O)[C@H](CCc2cc(F)c(C(F)(F)F)c(F)c2)NC(=O)CN(C)C(=O)[C@H](Cc2ccc(C(F)(F)F)cc2)N2CCCC[C@@H](C2=O)N(C)C(=O)CN(C)C1=O [PP0538] |  |  | B (a compound having 3 or more and less than 10 is denoted as B) | B (a compound having 3 or more and less than 10 is denoted as B) |  | 
13 | 0.36 |  | CCCOC[C@H]1C(=O)N[C@@H]([C@@H](C)CC)C(=O)N2CCC[C@H]2C(=O)N(C)[C@H]2C/C=C\CCN(C2=O)[C@@H](Cc2ccc(C)cc2)C(=O)N(C)CC(=O)N[C@@H](CCc2ccc(C(F)(F)F)c(OC)c2)C(=O)N2C[C@H](OCC)C[C@H]2C(=O)N(C)C2(CCC2)C(=O)N(C)[C@@H](C(CC)CC)C(=O)N(C)[C@H](C(=O)N(C)C)CC(=O)N1C [PP2331] | A (a compound having 10 or more and less than 20 is denoted as A) | AA (a compound having 20 or more is denoted as AA) |  |  |  | 
